Laboratory results published in patent US10391100B2, “Combination of aurora kinase inhibitors and anti-CD20 antibodies” (Millennium Pharmaceuticals, Inc., priority 2008, dated 2019).
Marks after values point to notes of the source that are not given here.

Tests used:
Assay type in all cases: in vivo, human (in female SCID mice)
[1] = system: Ly19 lymphoma (cell line Ly-19); experiment: Sub-cutaneous Ly19 lymphoma model, tumor volume (Example 1); details: for Pct Decrease in AUC Relative to Mean Vehicle AUC: Days 0 through 21; for Change in Slope: log tumor volume, slope (day 21 to 62) − slope (day 13 to 21)
Experimental: (§1) Tumor growth was monitored with vernier calipers. The mean tumor volume was calculated using the formula V=W^2×L/2.
P-values <0.05 were considered significant.

[2] = system: WSU-Luc lymphoma (cell line WSU-DLCL2); experiment: Subcutaneous WSU-Luc lymphoma model, tumor volume (Example 2); details: Compound III-1 3 mg/kg, PO, qd; Days 0 through 20
Experimental: as §1
(§2) The statistical methodology used in these experiments was the same as that described in Example 1 above.

[3] = system: primary diffuse large B-cell lymphoma PHTX-22-06; experiment: Sub-cutaneous primary diffuse large B-cell lymphoma model PHTX-22-06, tumor volume (Example 3); details: Compound III-1 20 mg/kg, PO, bid; Days 0 through 27
Experimental: Tumor growth was monitored with vernier calipers. The mean tumor volume was calculated using the formula V═W^2×L/2.
The animals were inoculated with 2×5 mm^3 tumor mass from primary […] tumor chunk at implant site Flank (trocar).
as §2

[4] = system: Ly19-Luc disseminated lymphoma; experiment: Disseminated Ly19-Luc lymphoma model, Experiment #1 (Example 4); details: for Maximum Percent Body Weight Change / TGI Mean / BW change (maximum body-weight change): Day 24; for TGI: calculated on Day 24; for number of mice remaining by the end of the study: Day 132
Experimental: (§3) The in vivo experiments using the disseminated Ly19-Luc lymphoma model were performed in duplicate. […] Tumor volumes were estimated once weekly throughout the inoculation and treatment period using the Xenogen IVIS® imaging system (Xenogen Corporation, Alameda, Calif.). To image the mice, an intraperitoneal (IP) injection of […] (15 mg/ml), was administered 10 minutes prior to procedure and mice were anesthetized with 2% isofluorane 2-5 minutes throughout the scanning procedure. For Xenogen imaging, each mouse was imaged on dorsal and ventral views. The sum of 2 photon flux measurements was used for the analysis.
The antitumor effects of each treatment group were determined by calculating the percent TGI ([Δ control mean tumor volume−Δ treated mean tumor volume]×100/Δ control mean tumor volume) at the end of treatment. Mice were weighed once weekly for the duration of the study and the maximal percent body weight change was determined during the treatment period. […] Animals were removed from the study when they reached humane endpoints (>20%, body weight loss or paralysis of either both front or hind limbs), the medial survival for each group was determined and the survival rate of treatment groups were compared to control. Treatment groups were evaluated to determine if the effects of combination treatment were synergistic, additive or sub-additive relative to control.
(§4) The photon flux data was log10 transformed, and these values over the treatment period were compared across treatment groups to assess if the differences in the trends over time were statistically significant. A mixed-effects linear regression model using a restricted maximum likelihood was fit to the data. An ANOVA test was performed to determine if there was a statistically significant difference between the treatment groups and control.
(§5) Log10-transformed fold change photon flux values (tumor burden) from baseline were also used to calculate AUC values for each animal. The AUC values from the mice in a given treatment group were then averaged together to generate mean AUC values and associated standard errors.
(§6) A synergy score calculation was used to address the question of whether the effects of the combination treatment were synergistic, additive, or sub-additive relative to the individual treatments.
(§7) To compare the tumor regrowth rates after stopping treatment, mixed-effects piecewise linear regression models were built separately for each treatment group with mice monitored beyond treatment period. All P-values <0.05 were called significant in this report.
(§8) The survival rates of the animals in each treatment group were plotted using Kaplan-Meier curves and the log rank test was used to compare survival rates among pairs of treatment groups.

[5] = system: Ly19-Luc disseminated lymphoma; experiment: Disseminated Ly19-Luc lymphoma model, Experiment #2 (Example 4)
Experimental: as §3
The antitumor effects of each treatment group were determined by calculating the percent TGI ([Δ control mean tumor volume−Δ treated mean tumor volume]×100/Δ control mean tumor volume) at the end of treatment. Mice were weighed once weekly for the duration of the study and the maximal percent body weight change was determined during the treatment period. Animals were monitored for survival up to 132 days following treatment. Animals were removed from the study when they reached humane endpoints (>20%, body weight loss or paralysis of either both front or hind limbs), the medial survival for each group was determined and the survival rate of treatment groups were compared to control. Treatment groups were evaluated to determine if the effects of combination treatment were synergistic, additive or sub-additive relative to control.
as §4, §5, §6, §7, §8
Mice were dosed according to the following treatment groups:
Mice were weighed and tumor volumes were estimated with Xenogen signal (average photon flux) calculation once a week throughout the inoculation and the treatment period and after the treatment until the end of study.
Treatment started 7 days following the inoculation of tumor cells into the tail vein, with an average photon flux measurement of 1×10^7 on treatment Day 0.

[6] = system: WSU-DLBCL2-Luc disseminated lymphoma; experiment: Disseminated WSU-DLBCL2-Luc lymphoma model, first study (QD dosing); details: for Median Survival / Maximum Percent Body Weight Change (%) / TGI Mean (%): 1st study; for Maximum Percent Body Weight Change (%) / TGI Mean (%): Day 21; for Pct Decrease in AUC Relative to Mean Vehicle AUC: first study, PO, QD, log10 photon flux vs day AUC, Days 0 through 21
Experimental: (§9) The Ly19-Luc, WSU-DLBCL2-Luc and PHTX-22-06 models described in these studies are human DLBCL cell lines, transfected with luciferase. These models were grown in immununocomprimised mice subcutaneously on the flank, or disseminated throughout the body by tail vain injection.
(§10) Two separate studies were conducted in the WSU-DLBCL2-luc model.

[7] = system: WSU-DLBCL2-Luc disseminated lymphoma; experiment: Disseminated WSU-DLBCL2-Luc lymphoma model, second study (BID dosing); details: for Median Survival / Maximum Percent Body Weight Change (%) / TGI Mean (%): 2nd study; for TGI Mean (%): Day 22; for number of mice remaining at the end of the study: Day 130; for Pct Decrease in AUC Relative to Mean Vehicle AUC: second study, PO, BID, log10 photon flux vs day AUC, Days 0 through 21
Experimental: as §9, §10

[8] = Compound III-1 3 mg/kg Po/QD × 21 days
[9] = Compound III-1 3 mg/kg po/QD × 21 days
[10] = Compound III-1 10 mg/kg Po/QD × 21 days
[11] = Compound III-1 10 mg/kg po/QD × 21 days
[12] = Compound III-1 3 mg/kg PO QD × 3 wks, Day 23
[13] = Compound III-1 10 mg/kg po/BID × 21 days
[14] = Compound III-1 20 mg/kg po/QD × 21 days (dose holiday Day 9 to Day 13)

For `COc1cc(Nc2ncc3c(n2)-c2ccc(Cl)cc2C(c2c(F)cccc2OC)=NC3)ccc1C(=O)O` [Compound III-1, 4-{[9-chloro-7-(2-fluoro-6-methoxyphenyl)-5H-pyrimido[5,4-d][2]benzazepin-2-yl]amino}-2-methoxybenzoic acid], the “Pct Decrease in AUC Relative to Mean Vehicle AUC” value ([1]; Compound III-1 3 mg/kg qd) was 22.9 Pct, the “Pct Decrease in AUC Relative to Mean Vehicle AUC” value ([1]; Compound III-1 10 mg/kg bid) was 105.6 Pct and the “Pct Decrease in AUC Relative to Mean Vehicle AUC” value ([1]; Compound III-1 10 mg/kg qd) was 79.3 Pct. For the same compound, the “Change in Slope” value ([1]; Compound III-1 10 mg/kg bid) was 0.018, the “Change in Slope” value ([1]; Compound III-1 10 mg/kg qd) was 0.040 and the “Pct Decrease in AUC Relative to Mean Vehicle AUC” value [2] was 19.4 Pct. For the same compound, the “Pct Decrease in AUC Relative to Mean Vehicle AUC” value [3] was 79.3 Pct, the “Median Survival” value [4, 8] was 40 days and the “Maximum Percent Body Weight Change” value [4, 8] was “+6.2, Day 24%”. For the same compound, the “TGI Mean” value [4, 8] was 89.6, %, the “Median Survival (Days)” value [4, 9] was 40, p < 0.01^c Days and the “BW change (maximum body-weight change)” value [4, 9] was “+6.2, Day 24%”. For the same compound, the TGI [4, 9] was 89.6, p < 0.001%, the “Median Survival” value [4, 10] was 63.5 days and the “Maximum Percent Body Weight Change” value [4, 10] was “+3.3, Day 24%”. The “TGI Mean” value [4, 10] was 100, %, the “Median Survival (Days)” value [4, 11] was 63.5, p < 0.01 Days and the “BW change (maximum body-weight change)” value [4, 11] was “+3.3%, Day 24”. For the same compound, the TGI [4, 11] was 100, p < 0.001%, the tolerability ([4]; Compound III-1 at 3 or 10 mg/kg on a QD schedule) was “well tolerated” and the “number of mice remaining by the end of the study” value ([4]; single agent Compound III-1 3 mg/kg) was 1 out of 10. For the same compound, the “number of mice remaining by the end of the study” value ([4]; single agent Compound III-1 10 mg/kg) was 3 out of 10, the Mean BW Day 0 ([5]; Compound III-1 3 mg/kg PO QD × 3 wks, Day 0 (baseline)) was 19.2 g and the “Maximum BW Change (%) Day 22” value ([5]; Compound III-1 3 mg/kg PO QD × 3 wks, Day 22) was “+3.1%”. The “Mean BW Day 22” value ([5]; Compound III-1 3 mg/kg PO QD × 3 wks, Day 22, in g (unit assumed)) was 19.81, the “Mean Photon Flux (Day 23)” value [5, 12] was 2.34E+08 and the “TGI Day 23” value [5, 12] was 87.7%. The tolerability ([5]; Compound III-1 at 3 mg/kg on a QD schedule) was “well tolerated”, the “Mean AUC” value ([5]; log10 fold change photon flux vs day, up to Day 23, Compound III-1 3 mg/kg QD) was 18.2 and the “Median Survival” value [6, 9] was 46.5 days. The “Maximum Percent Body Weight Change (%)” value [6, 9] was −3.1, Day 21%, the “TGI Mean (%)” value [6, 9] was 50.9, Day 21% and the “Median Survival” value [6, 11] was 44 days. For the same compound, the “Maximum Percent Body Weight Change (%)” value [6, 11] was −4.5, Day 21%, the “TGI Mean (%)” value [6, 11] was 88.2, Day 21% and the TGI ([6]; Compound III-1 alone 3 mg/kg QD) was 50.9%. The TGI ([6]; Compound III-1 alone 10 mg/kg QD) was 88.2%, the “Pct Decrease in AUC Relative to Mean Vehicle AUC” value ([6]; Compound III-1 3 mg/kg) was 21.1% and the “Pct Decrease in AUC Relative to Mean Vehicle AUC” value ([6]; Compound III-1 10 mg/kg) was 42.0%. For the same compound, the “Median Survival” value [7, 13] was 70 days, the “Maximum Percent Body Weight Change (%)” value ([7]; Compound III-1 10 mg/kg po/BID × 21 days, Day 19) was −3.9, Day 19% and the “TGI Mean (%)” value [7, 13] was 99.7, Day 22%. For the same compound, the “Median Survival” value [7, 14] was 111.5 days, the “Maximum Percent Body Weight Change (%)” value ([7]; Compound III-1 20 mg/kg po/QD × 21 days (dose holiday Day 9 to Day 13), Day 9) was −8.9, Day 9% and the “TGI Mean (%)” value [7, 14] was 99.7, Day 22%. For the same compound, the TGI ([7]; Compound III-1 alone 10 mg/kg BID) was 99.7%, the TGI ([7]; Compound III-1 alone 20 mg/kg BID) was 99.7% and the “mean maximum body weight loss” value ([7]; Compound III-1 at 20 mg/kg BID, Day 9) was 8.9%. For the same compound, the “number of mice remaining at the end of the study” value ([7]; 10 mg/kg single agent Compound III-1) was 1 out of 10, the “number of mice remaining at the end of the study” value ([7]; 20 mg/kg Compound III-1 single agent) was 5 out of 10 and the “Pct Decrease in AUC Relative to Mean Vehicle AUC” value ([7]; Compound III-1 10 mg/kg) was 94.0%. The “Pct Decrease in AUC Relative to Mean Vehicle AUC” value ([7]; Compound III-1 20 mg/kg) was 96.6%.
